According to ChEMBL document CHEMBL5523756, “Molecular Transformers: Adaptive Multitarget Ligands for Esterase-Induced Transition from Analgesics to Anesthetics” (J Med Chem, 2024):
Calls of active or inactive are those of the source. No cut-off for these calls is given here.

How the values were obtained:
[1] = Toxicity in ICR mouse assessed as histopathological changes in kidney at 1.5 times ED50, iv administered as single dose and measured after 14 days by H and E staining based analysis; type: organism-based; conditions: in vivo, 336 h, time 14 day
DRG neuron = test: Modulation of CFA-induced male ICR mouse DRG neuron excitability assessed as reduction in action potential firing frequency at 10 uM by whole cell […] assay; type: functional, cell-based
Rattus norvegicus = test: Anesthesia recovery in Sprague-Dawley rat assessed as effect on recovery time of righting reflex at 19 mg/kg administered as continuous infusion followed by maintenance at 3.25 mg/kg/min for 0 to 20 mins, 2.5 mg/kg/min for 20 to 30 mins and 2 mg/kg/min for 30 to 60 mins; type: functional, organism-based; conditions: route par
[2] = Toxicity in Sprague-Dawley rat assessed as histopathological changes in heart at 19 mg/kg administered as continuous infusion followed by maintenance at 3.25 mg/kg/min for 0 to 20 mins, 2.5 mg/kg/min for 20 to 30 mins and 2 mg/kg/min for 30 to 60 mins and measured after 14 days by H and E staining based analysis; type: organism-based; conditions: in vivo, other, 336 h, route par, time 14 day

CCN(CC)CCOC(=O)Oc1c(C(C)C)cccc1C(C)C.Cl
Activity [1]: Non-Toxic
Activity (DRG neuron): Active
Activity (Rattus norvegicus): Active
Activity [2]: Non-Toxic
